From patent US20020013478A1, “Calanolide analogues and methods of their use” (Sarawak Medichem Pharmaceuticals,Inc., priority 1994, published 2002) come the findings set out here.

The subject of one test is CEM-SS cells. As to the kind of experiment: CEM-SS MTT assay, cytotoxicity (Table I). It is filed as cell-based, human. A general note: Tetrazolium assays rely on reduction of a dye to a coloured formazan, in cell work by metabolically active cells.
In a further test the test system is HIV-1. The note with it: for EC50 / Maximum Protection (%): CEM-SS MTT assay; for protecting cells against HIV infection: text summary of Table I.
The test system of the next test is 2.2.15 cells. As to the kind of experiment: Toxicity in 2.2.15 cells, neutral red dye uptake. It is filed as cell-based, human. The conditions noted are these: Table II; read-out: HBV IC50. As for the experimental part: Cells of 2.2.15 were grown to confluence in 96-well flat-bottomed tissue culture plates and treated with compounds (in 0.2 mL culture medium/well) as described above. Four concentrations of each compound were assayed, each in triplicate cultures, in 3- to 10-fold steps. Untreated control cultures were maintained on each 96-well plate. On each 96-well plate, wells containing no cells were used to correct for light scattering.

Another test deals with HCMV. Put plainly: HCMV semi-automated CPE-inhibition assay in human foreskin fibroblast cells. In kind it is cell-based, human cytomegalovirus. The note with it: Table II.
Test [1] relates to human foreskin fibroblast cells. Put plainly: Toxicity run with the HCMV assay, human foreskin fibroblast cells. It is filed as cell-based. The note with it: Table II. As to the method:
[table] […] The media from the wells is then aspirated and 2 mL of each drug concentration is then added to each well. The cells are then incubated in a CO2 incubator at 37° C. for 72 h. At the end of this time, the media-drug solution is removed and the cells washed. […] The cell-media mixture is then pipetted up and down vigorously to break up the cell suspension, and 0.2 mL of the mixture is added to 9.8 mL of Isoton III and counted using a Coulter Counter. Each sample is counted three times with three replicate wells per sample. The procedure for plating cells and adding drug is the same as for the MTT Assay. After drug addition, the plates are incubated for seven days in a CO2 incubator at 37° C. […] This is incubated in the CO2 incubator for one hour. The dye is aspirated and the cells are washed using a Nunc Plate Washer. […] The plates are rotated for 15 minutes and the optical densities are read at 550 nm on a plate reader.

The test system of the next test is HBV. Put plainly: HBV replication in cultures of 2.2.15 cells, extracellular HBV virion DNA (primary assay). The conditions noted are these: read-out: HBV EC50; Table II.
The test system of test [2] is HCMV isolates Towne, AD169, E. Mann, Coffman, C9208. Put plainly: Anti-CMV plaque reduction assay against various laboratory and clinical isolates (Example 40). It is filed as cell-based, human cytomegalovirus. As for the experimental part: On the date of assay, the drug is made up at twice the desired concentration in 2x MEM and then serially diluted 1:5 in 2x MEM using six concentrations of drug. The initial starting concentration is usually 200 gg/mL down to 0.06 μg/mL. […] The media is then aspirated from the wells and 0.2 mL of virus is added to each well in duplicate with 0.2 mL of media being added to drug toxicity wells. The plates are then incubated for one hour with shaking every fifteen minutes. […] This will give final drug concentrations beginning with 100 μg/mL and ending with 0.03 μg/mL and a final agarose overlay concentration of 0.5%. The drug agarose mixture is applied to each well in 2 mL volume and the plates then incubated for three days, after which the cells were stained with a 1.5% solution of neutral red. At the end of 4-6hr incubation period, the stain is aspirated, and plaques counted using a stereomicroscope at lOx magnification. The procedure again is nearly the same as for HSV with a few minor changes. […] The assay is incubated for 14 days with the additional 1 mL overlays being applied on days four and eight. The procedure for the liquid overlay plaque assay is similar to that using the agarose overlay. The procedure for adding the virus is the same as for the regular plaque assay. The drugs are made up in a concentration to be used in MEM with 2% FBS. The drugs are not made up at 2x concentration as in the previous assays but are made up at the desired concentration. For HSV-1 and HSV-2 assays, an antibody preparation obtained from Baxter Health Care Corporation is diluted 1:500 and added to the media that the drug is diluted in. For CMV and VZV, no antibody in the overlay is utilized. For the CMV assay, additional medium without new drug is added on day five and allowed to incubate for a total of 10 days. For VZV, additional medium is added on day five and incubated for a total of 10 days. At the end of the incubation period for all of the assays, 2 mL of 1:10 dilution of stock neutral is added to each well incubated for six hours. The liquid is then aspirated off and plaques enumerated using a stereomicroscope. Five calanolide analogues, prepared as described above, were further evaluated for their anti-HCMV activity in plaque reduction assay against various laboratory and clinical isolates (Towne, AD 169, E. Mann, Coffinan, and […]).
For orientation: In a plaque reduction assay, fewer plaques than in the control indicate reduced infectivity or spread.

As usually defined, the IC50 is the midpoint of a concentration-inhibition curve. As a reminder, the EC50 is the midpoint of the concentration-response curve.

Like-named read-outs stand apart in the source and are kept apart here. Where only a bound is given, the exact number is not on record here.

Description for HBV: Both intracellular and extracellular HBV DNA are analyzed in order to (i) allow for verification of compound efficacy and (ii) provide possible data on the target site in the HBV replication pathway for the compound from examination of the pattern of viral replicative forms. The culture medium is changed daily during the treatment period to (i) prevent the buildup of potentially toxic metabolites derived from test compounds and (ii) provide an analysis of HBV virion production during discrete 24-hour intervals which enables a quantitative comparison of any effect on virion production.
The analysis of HBV DNA is performed using blot hybridization techniques (Southern and slot blot) and [^32P]-labeled HBV-specific probes. HBV DNA levels are measured by comparison to known amounts of HBV DNA standards applied to every nitrocellulose membrane (gel or slot blot). An AMBIS beta scanner, which measures the radioactive decay of the hybridized probes directly from the nitrocellulose membranes, is used for the quantitative analysis. Standard curves, generated by multiple analyses, are used to correlate CPM measurements made by the beta scanner with relative levels of target HBV DNA. The levels of HBV virion DNA released into the culture medium are analyzed by a slot blot hybridization procedure.

In the test with CEM-SS cells, `CCCc1cc(=O)oc2c3c(c4c(c12)OC(C)(C)C=C4)OC(C)C(C)(C)C3O` (racemic) [(±)-16b, (±)-10,12-trans-10,11-dihydro-12-hydroxy-6,6,10,11,11-pentamethyl-4-propyl-2H,6H,12H-benzo [1,2-b:3,4-b′:5,6-b″]tripyran-2-one] displayed an IC50 of 16.9 µM. Moreover, in the test with HIV-1, it took 2.36 µM to reach a half-maximal effect (EC50), the “Maximum Protection (%)” value was found to be 78% and the “protecting cells against HIV infection” value is “highly efficacious”.
Compound `CCCc1cc(=O)oc2c3c(c4c(c12)OC(C)(C)C=C4)OC(CC)C(C)C3O` (racemic) [(±)-16h, (±)-10,11,12-cis-10,11-dihydro10-ethyl-12-hydroxy4-propyl-6,6,11-trimethyl-2H,6H,12H-benzo [1,2-b:3,4-b′:5,6-b″]tripyran-2-one] registered a 50% inhibitory concentration (IC50) in the test with CEM-SS cells of 20.9 µM.
The compound `CCCc1cc(=O)oc2c3c(c4c(c12)OC(C)(C)C=C4)O[C@@H](C)C(C)=C3` [Compound 22, 10(S)4-propyl-6,6,10,11-tetramethyl-2H,6H,10H-benzo [1,2-b:3,4-b′:5,6-b″]tripyran-2-one] returned an IC50 in the test with CEM-SS cells (Homo sapiens) of 24.7 µM.
`CCCc1cc(=O)oc2c3c(c4c(c12)OC(C)(C)C=C4)O[C@H](C)[C@@H](C)C3=NO` (racemic) [(±)-19a, (±)10,11-trans-10,11-Dihydro4-propyl-6,6,10,11-tetramethyl-2H, 6H, 12H-benzo [1,2-b:3,4-b′:5,6-b″]tripyran-2,12-dione-12-oxime] gave an IC50 in the test on CEM-SS cells of 15.8 µM.
Same read-out and setting: the same measure for `CCCc1cc(=O)oc2c(C(=O)C(C)C(C)(C)O)c(O)c3c(c12)OC(C)(C)C=C3` (racemic) [(±)-14b, (±)-6.6-Dimethyl-10-(2,3-dimethyl-3-hydroxybutyro)-9-hydroxy4-propyl-2H,6H-benzo[1,2-b:3,4-b′]dipyran-2-one]: 27.1 µM.
`CCCc1cc(=O)oc2c3c(c4c(c12)OC(C)(C)C=C4)OC(CC)C(C)C3O` (racemic) [(±)-16f, (±)-10,11-qrans-11,12-trans-10,11-dihydro-10-ethyl-12-hydroxy4-propyl-6,6,11-trimethyl-2H,6H,12H-benzo [1,2-b:3,4-b′:5,6-b″]tripyran-2-one] showed a 50% inhibitory concentration (IC50) in the test with CEM-SS cells of 17.7 µM. In the test with HIV-1, the concentration giving a half-maximal response (EC50) was determined as 1.97 µM, the “Maximum Protection (%)” value is recorded as 86% and the “protecting cells against HIV infection” value was “highly efficacious”.
The compound `CCCc1cc(=O)oc2c3c(c4c(c12)OC(C)(C)C=C4)OC(C)C(C)(C)C3O` (racemic) [(±)-16a, (±)-10,12-cis-10,11-Dihydro-12-hydroxy-6,6,10,11,11-pentamethyl-4propyl-2H, 6H, 12H-benzo [1,2-b:3,4-b′:5,6-b″]tripyran-2-one] showed a half-maximal inhibitory concentration (IC50) with CEM-SS cells of 20.3 µM.
For the compound `CCCc1cc(=O)oc2c3c(c4c(c12)OC(C)(C)C=C4)OC(C)C(C)C3=O` (single isomer, unassigned; (-)) [(−)-7a], the concentration for half-maximal inhibition (IC50) with 2.2.15 cells stood at 86 µM. In addition, the “HCMV EC50” value in the test with HCMV is greater than 4.0 µg/mL. In test [1], the “HCMV IC50” value worked out at 11.9 µg/mL. Moreover, the EC50 with HBV was greater than 10 µM.
Compound `CCCc1cc(=O)oc2c3c(c4c(c12)OC(C)(C)C=C4)OC(CC)C(C)C3O` (racemic) [(±)-16e, (±)-10,11-trans-11,12-cis-10,11-Dihydro-10-ethyl-12-hydroxy-4-propyl-6,6,11-trimethyl-2H,6H,12H-benzo [1,2-b:3,4-b′:5,6-b″]tripyran-2-one] came in with an IC50 with CEM-SS cells of 14 µM. In the test on HIV-1, the 50% effective concentration (EC50) came to 1.67 µM, the “Maximum Protection (%)” value was 88% and the “protecting cells against HIV infection” value is “highly efficacious”.
In the test with CEM-SS cells, `CCCc1cc(=O)oc2c3c(c4c(c12)OC(C)(C)C=C4)OC(C)(C)C(C)C3O` (racemic) [(±)-16d, (±)-11,12-trans-10,11-dihydro-12-hydroxy-6,6,10,10,11-pentamethyl-4-propyl-2H,6H,12H-benzo [1,2-b:3,4-b′:5,6-b″]tripyran-2-one] yielded an IC50 of 21 µM. Further, in the test with HIV-1, the half-maximal effective concentration (EC50) stood at 5.66 µM, the “Maximum Protection (%)” value was 88% and the “protecting cells against HIV infection” value was “highly efficacious”.
For `CCCc1cc(=O)oc2c3c(c4c(c12)OC(C)(C)C=C4)OC(C)C(C)C3=O` (racemic) [(±)-7, 10,11-trans-dihydro-4-propyl-6,6,10,11-tetramethyl-2H,6H,12H-benzo[1,2-b:3,4-b′:5,6-b″]-tripyran-2,12-dione], it took 19.1 µM to reach half-maximal inhibition in the test with CEM-SS cells (IC50). The concentration giving a half-maximal response (EC50) in test [2] (isolate AD169) turned out to be 3.16 µM; in test [2] (isolate C9208), 7.16 µM; in test [2] (isolate Coffman) it was 3.34 µM; in test [2] (isolate E. Mann) it was 3.16 µM; in test [2] (isolate Towne) it was 3.34 µM; with HIV-1, 1.18 µM. Also, the “Maximum Protection (%)” value in the test on HIV-1 is given as 90%. For the same compound, the “protecting cells against HIV infection” value in the test on HIV-1 is reported as “highly efficacious”.
In the case of `CCCc1cc(=O)oc2c(C(=O)[C@H](C)[C@@H](C)OC(C)=O)c(O)c3c(c12)OC(C)(C)C=C3` [(+)-10, 6,6Dimethyl-9-hydroxy-10-[2(R)-methyl-3(R)-acetoxybutyro]-4-propyl-2H,6H-benzo-[1,2-b:3,4-b′]dipyran-2-one], inhibition in the test on CEM-SS cells was half-maximal at 9.27 µM (IC50). In the test with HIV-1, the midpoint of the response, the EC50, lay at 0.89 µM; the “Maximum Protection (%)” value was determined as 88%; the “protecting cells against HIV infection” value is recorded as “highly efficacious”.
In the test with CEM-SS cells, `CCCc1cc(=O)oc2c3c(c4c(c12)OC(C)(C)C=C4)OC(C)C(C)C3=NOC` (racemic) [(±)-19b, (±)-10,11-trans-10,11 -Dihydro4-propyl-6,6,10,11-tetramethyl-2H, 6H, 12H-benzo [1,2-b:3,4-b′:5,6-b ″]tripyran-2,12-dione-12-methoxime] displayed an IC50 greater than 100 µM. This compound also displayed an EC50 in the test on HIV-1 greater than 100 µM.
For `CCCc1cc(=O)oc2c(C(=O)C(C)(C)C(C)O)c(O)c3c(c12)OC(C)(C)C=C3` (racemic) [(±)-14a, (±)-6,6-Dimethyl-10-(2,2-dimethyl-3-hydroxybutyro)-9-hydroxy-4-propyl-2H,6H-benzo[1,2-b:3,4-b′]dipyran-2-one], in the test on CEM-SS cells, the half-maximal inhibitory concentration (IC50) worked out at 37 µM.
Same read-out and setting: the same measure for `CCCc1cc(=O)oc2c3c(c4c(c12)OC(C)(C)C=C4)OC(C)(C)C(C)C3O` (racemic) [(±)-16c, (±)-11,12-cis-10,11-Dihydro-12-hydroxy-6,6,10,10,11-pentamethyl-4-propyl-2H, 6H, 12H-benzo [1,2-b:3,4-b′:5,6-b″]tripyran-2-one]: 21.3 µM; for `CCCc1cc(=O)oc2c3c(c4c(c12)OC(C)(C)C=C4)OC(CC)C(C)C3O` (racemic) [(±)-16g, (±)-10,11-cis-11,12-trans-10,11-Dihydro-10-ethyl-12-hydroxy-4-propyl-6,6,11-trimethyl-2H,6H,12H-benzo [1,2-b:3,4-b′:5,6-b″]tripyran-2-one]: 11.6 µM.
